{"source": "patent US9661847B2", "about": "“Antimicrobial preservative compositions for personal care products” (Galaxy Surfactants Ltd., priority 2011, dated 2017)", "key": {"[1]": {"conditions": "0.1% aqueous solution at 25° C., from 72 dynes/cm; cited from earlier work"}, "[2]": {"test": "Reduction of surface tension of water", "type": "physicochemical"}, "[3]": {"tested_on": "Gram positive, Gram negative bacteria, yeast and mould", "test": "Minimum inhibitory concentration, whole panel of microbes", "type": "cell-based", "conditions": "for Antimicrobial activity, in words: up to 1.0% concentration"}, "[4]": {"tested_on": "Candida albicans ATCC 10231", "test": "Minimum inhibitory concentration", "type": "cell-based", "conditions": "for Concentration of individual component at the MIC of the blend: C. albicans"}, "[5]": {"tested_on": "Bacillus subtilis ATCC 9372", "test": "Minimum inhibitory concentration", "type": "cell-based", "conditions": "B. subtilis"}, "[6]": {"tested_on": "Aspergillus niger ATCC 16404", "test": "Minimum inhibitory concentration", "type": "cell-based", "conditions": "for Concentration of individual component at the MIC of the blend: A. niger"}, "[7]": {"tested_on": "Malassezia furfur MTCC 1374", "test": "Minimum inhibitory concentration", "type": "cell-based", "conditions": "M. furfur"}, "[8]": {"tested_on": "Propionibacterium acnes MTCC 1951", "test": "Minimum inhibitory concentration", "type": "cell-based", "conditions": "P. acnes"}, "[9]": {"tested_on": "Escherichia coli ATCC 10142", "test": "Minimum inhibitory concentration", "type": "cell-based", "conditions": "E. coli"}, "[10]": {"tested_on": "Staphylococcus aureus ATCC 6538S", "test": "Minimum inhibitory concentration", "type": "cell-based"}, "[11]": {"tested_on": "Pseudomonas aeruginosa Immuno type IV", "test": "Minimum inhibitory concentration", "type": "cell-based", "conditions": "P. aeruginosa"}}, "note": "Like-named read-outs stand apart in the source and are kept apart here.", "data": [{"molecule": "CCCCC(CC)COCC(O)CO", "note": "(stereo not shown) [2-ethyl hexyl glyceryl ether, 3-(2-ethylhexyl)oxy 1,2-propanediol]", "values": [{"measurement": "Surface tension of water reduced to", "setting": "[1]", "result": 32, "unit": "dynes/cm"}]}, {"molecule": "CCCCCCCC(=O)NCCO", "note": "[Octanoyl MEA amide, N-(2-hydroxylethyl)caprylic acid amide]", "values": [{"measurement": "Surface tension of water reduced to", "setting": "[2]; 0.05% level", "result": 38, "unit": "dynes/cm"}, {"measurement": "Surface tension of water", "setting": "[2]; 0.05% solution", "result": 38.5, "unit": "dyne/cm"}, {"measurement": "Surface tension of water reduced to", "setting": "[2]; 0.1% concentration", "result": 30, "unit": "dynes/cm"}, {"measurement": "Surface tension of water", "setting": "[2]; 0.1% solution", "result": 30.5, "unit": "dyne/cm"}, {"measurement": "Antimicrobial activity, in words", "setting": "[3]", "result": "did not exhibit any antibacterial activity"}]}, {"molecule": "OCCOc1ccccc1", "note": "[Phenoxy ethanol, 2-Phenoxy ethanol]", "values": [{"measurement": "Concentration of phenoxy ethanol in combination enough to kill the organism", "setting": "[4]; in combination with [A] and [B] of Preservative Blend No 1, Candida", "result": "around 0.25%"}, {"measurement": "Concentration of individual component at the MIC of the blend", "setting": "[5]; within Preservative Blend No 2", "result": 1600, "unit": "ppm"}, {"measurement": "Concentration of phenoxy ethanol in combination enough to kill the organism", "setting": "[6]; in combination with [A] and [B] of Preservative Blend No 1, Aspergillus", "result": "around 0.25%"}, {"measurement": "Concentration of individual component at the MIC of the blend", "setting": "[7]; within Preservative Blend No 2", "result": 3200, "unit": "ppm"}]}, {"molecule": "C=CCCCCCCCCC(=O)NCCO", "note": "[Undecylenoyl MEA amide, N-undecylenoyl monoethanol amide]", "values": [{"measurement": "Concentration of individual component at the MIC of the blend", "setting": "[8]; within Preservative Blend No 1", "result": 300, "unit": "ppm"}, {"measurement": "Concentration of individual component at the MIC of the blend", "setting": "[8]; within Preservative Blend No 2", "result": 200, "unit": "ppm"}, {"measurement": "Concentration of individual component at the MIC of the blend", "setting": "[4]; within Preservative Blend No 1", "result": 300, "unit": "ppm"}, {"measurement": "Concentration of individual component at the MIC of the blend", "setting": "[4]; within Preservative Blend No 2", "result": 200, "unit": "ppm"}, {"measurement": "Concentration of individual component at the MIC of the blend", "setting": "[9]; within Preservative Blend No 1", "result": 200, "unit": "ppm"}, {"measurement": "Concentration of individual component at the MIC of the blend", "setting": "[9]; within Preservative Blend No 2", "result": 300, "unit": "ppm"}, {"measurement": "Concentration of individual component at the MIC of the blend", "setting": "[5]; within Preservative Blend No 1", "result": 200, "unit": "ppm"}, {"measurement": "Concentration of individual component at the MIC of the blend", "setting": "[5]; within Preservative Blend No 2", "result": 200, "unit": "ppm"}, {"measurement": "Concentration of individual component at the MIC of the blend", "setting": "[10]; within Preservative Blend No 1", "result": 200, "unit": "ppm"}, {"measurement": "Concentration of individual component at the MIC of the blend", "setting": "[10]; within Preservative Blend No 2", "result": 300, "unit": "ppm"}, {"measurement": "Concentration needed for antimicrobial activity of the ingredient by itself (range over microbes)", "setting": "[3]; ingredient alone, octanoyl glycine tested at neutral pH", "result": "> 10000", "unit": "ppm"}, {"measurement": "Antimicrobial activity, in words", "setting": "[3]", "result": "does not exhibit any antimicrobial activity"}, {"measurement": "Concentration of individual component at the MIC of the blend", "setting": "[6]; within Preservative Blend No 1", "result": 300, "unit": "ppm"}, {"measurement": "Concentration of individual component at the MIC of the blend", "setting": "[6]; within Preservative Blend No 2", "result": 200, "unit": "ppm"}, {"measurement": "Concentration of individual component at the MIC of the blend", "setting": "[11]; within Preservative Blend No 1", "result": 200, "unit": "ppm"}, {"measurement": "Concentration of individual component at the MIC of the blend", "setting": "[11]; within Preservative Blend No 2", "result": 300, "unit": "ppm"}, {"measurement": "Concentration of individual component at the MIC of the blend", "setting": "[7]; within Preservative Blend No 1", "result": 400, "unit": "ppm"}, {"measurement": "Concentration of individual component at the MIC of the blend", "setting": "[7]; within Preservative Blend No 2", "result": 400, "unit": "ppm"}]}]}
